Experimental data published in patent publication US20240374573A1, “IMIDAZOLE CONTAINING COMPOUNDS, DERIVATIVES THEREFORE, AND USES THEREOF” (AglaeaPharma Inc., priority 2023, published 2024).

Target: T1, α2AAR (Homo sapiens, UniProt P08913)
T1 construct: host or cells: HEK293 (membranes)
T1 sequence (P08913 1-465): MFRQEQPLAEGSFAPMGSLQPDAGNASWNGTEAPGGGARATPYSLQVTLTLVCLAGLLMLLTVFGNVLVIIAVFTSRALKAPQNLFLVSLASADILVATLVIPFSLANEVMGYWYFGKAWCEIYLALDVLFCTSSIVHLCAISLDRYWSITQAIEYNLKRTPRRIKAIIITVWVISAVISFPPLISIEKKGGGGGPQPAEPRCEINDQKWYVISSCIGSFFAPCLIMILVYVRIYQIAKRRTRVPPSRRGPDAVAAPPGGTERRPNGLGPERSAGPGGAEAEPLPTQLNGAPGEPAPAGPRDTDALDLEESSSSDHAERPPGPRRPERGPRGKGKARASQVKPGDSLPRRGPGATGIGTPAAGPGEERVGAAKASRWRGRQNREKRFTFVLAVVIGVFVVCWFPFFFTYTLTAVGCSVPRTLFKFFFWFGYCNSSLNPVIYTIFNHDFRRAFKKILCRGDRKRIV
Assay: α2AAR binding assay ([3H]-RX 821002 radioligand)
Conditions: [3H]-RX 821002 0.5 nM, HEK293 membranes; read-out: α2A affinity (Ki)
Protocol: The α2AR Binding Assay was conducted using a stable HEK293 cell line, specifically constructed by WuXi AppTec for targeting α2AAR. […] Both the assay and wash buffers consist of 50 mM Tris-HCl at a pH of 7.4 (Tris base, Sigma, T1503-1 KG).
The procedure initiated with the preparation of test compounds and a reference compound, yohimbine (Sigma, Y3125), through an 8-point 4-fold serial dilution, transferring 1 μL of each to the assay plate. […] After scaling, the plates were agitated at room temperature for one hour. Subsequently, the Unifilter-96 GF/C filter plates were pre-soaked with 0.3% PEI (Sigma, P3143) for at least half an hour. The reaction mixtures were then filtered and washed four times with cold wash buffer using a Perkin Elmer Cell harvester. Post-filtration, the plates were dried at 50° C. for one hour. […] The top of the plates was then sealed with TopSeal-A sealing film. The trapped 3H was quantified using a Perkin Elmer MicroBeta2 Reader. […] Finally, the data were analyzed with Prism 5.0 software, employing the “log (inhibitor) vs. response-Variable slope” model for data fitting. This comprehensive process ensured precise assessment of the binding affinity of compounds to the α2AAR.

Row | Ki | SMILES
1 | > 1000 nM | Cc1cccc(C(c2cccc(NC(=O)CCC#N)c2)c2c[nH]cn2)c1C (single isomer, unassigned) [43-A]
2 | > 1000 nM | Cc1cccc(C(c2c[nH]cn2)c2cccc(C(N)=O)c2F)c1C (single isomer, unassigned) [45-A]
3 | > 1000 nM | Cc1cccc(C(c2cccc(OCCNS(C)(=O)=O)c2)c2c[nH]cn2)c1C (single isomer, unassigned) [46-A]
4 | 250 to 1000 nM | Cc1cccc(C(c2cccc(C(=O)NCC3CCOCC3)c2)c2c[nH]cn2)c1C (single isomer, unassigned) [98-A]
5 | 250 to 1000 nM | Cc1cccc(C(Cc2cccc(NS(=O)(=O)CC3CCOCC3)c2)c2c[nH]cn2)c1C (single isomer, unassigned) [112-A]
6 | 250 to 1000 nM | Cc1cccc(C(c2c[nH]cn2)c2cccc(C(=O)NCC3CCOCC3)c2F)c1C (single isomer, unassigned) [124-A]
7 | > 1000 nM | Cc1cccc(C(Cc2ccc(C(N)=O)c(F)c2)c2c[nH]cn2)c1C (single isomer, unassigned) [156-A]
8 | > 1000 nM | Cc1cccc(C(Cc2ccc(C(=O)O)cc2)c2c[nH]cn2)c1C (single isomer, unassigned) [175-A]
9 | > 1000 nM | Cc1cccc(C(OCCOCCNS(C)(=O)=O)c2c[nH]cn2)c1C (stereo not shown) [compound 40]
10 | 50 to 250 nM | Cc1cccc(C(c2c[nH]cn2)c2cccc(NC(=O)CC#N)c2F)c1C (stereo not shown) [compound 41]
11 | 50 to 250 nM | Cc1cccc(C(c2cccc(NC(=O)CCC(N)=O)c2)c2c[nH]cn2)c1C (stereo not shown) [compound 42]
12 | > 1000 nM | Cc1cccc(C(c2cccc(OCCC#N)c2)c2c[nH]cn2)c1C (stereo not shown) [compound 48]
13 | > 1000 nM | CONC(=O)c1cccc(C(c2ccccc2)c2c[nH]cn2)c1 (stereo not shown) [compound 49]
14 | 250 to 1000 nM | CONC(=O)c1cc(C(c2c[nH]cn2)c2cccc(C)c2C)ccc1F (stereo not shown) [compound 53]
15 | 250 to 1000 nM | Cc1cccc(C(c2ccnc(NS(C)(=O)=O)c2)c2c[nH]cn2)c1C (stereo not shown) [compound 57]
16 | 50 to 250 nM | Cc1cccc(C(c2c[nH]cn2)c2ccnc(C(N)=O)c2F)c1C (stereo not shown) [compound 58]
17 | 250 to 1000 nM | Cc1cccc(C(c2c[nH]cn2)C2CCCC(C(=O)O)C2)c1C (stereo not shown) [compound 60]
18 | 50 to 250 nM | COC(=O)Nc1cccc(C(c2c[nH]cn2)c2cccc(C)c2C)c1 (stereo not shown) [compound 62]
19 | 50 to 250 nM | CC(=O)NCc1cccc(C(c2c[nH]cn2)c2cccc(C)c2C)c1 (stereo not shown) [compound 65]
20 | 50 to 250 nM | Cc1cccc(C(c2cccc(CNS(C)(=O)=O)c2)c2c[nH]cn2)c1C (stereo not shown) [compound 69]
21 | 10 to 50 nM | Cc1cccc(C(c2cccc(N(C)S(C)(=O)=O)c2)c2c[nH]cn2)c1C (stereo not shown) [compound 71]
22 | 50 to 250 nM | Cc1c(F)cccc1C(c1cccc(NS(C)(=O)=O)c1)c1c[nH]cn1 (stereo not shown) [compound 75]
23 | 250 to 1000 nM | Cc1cccc(C(c2cccc(NS(=O)(=O)C(F)(F)F)c2)c2c[nH]cn2)c1C (stereo not shown) [compound 77]

Row | Ki | SMILES
24 | 250 to 1000 nM | CS(=O)(=O)Nc1cccc(C(c2c[nH]cn2)c2c(F)cccc2Cl)c1 (stereo not shown) [compound 78]
25 | > 1000 nM | Cc1cccc(C(c2cccc(NC(=O)CCN3CCN(C)CC3)c2)c2c[nH]cn2)c1C (stereo not shown) [compound 82]
26 | 50 to 250 nM | Cc1cccc(C(c2cccc(NCCNS(C)(=O)=O)c2)c2c[nH]cn2)c1C (stereo not shown) [compound 83]
27 | 50 to 250 nM | Cc1cccc(C(c2cccc(NC(=O)c3cn[nH]c3)c2)c2c[nH]cn2)c1C (stereo not shown) [compound 87]
28 | 50 to 250 nM | Cc1cccc(C(c2cccc(C(=O)NOCCN3CCOCC3)c2)c2c[nH]cn2)c1C (stereo not shown) [compound 91]
29 | > 1000 nM | Cc1cccc(C(c2c[nH]cn2)C2CCCC(C(N)=O)C2)c1C (stereo not shown) [compound 92]
30 | 250 to 1000 nM | Cc1cccc(C(CCOCCOCCNS(C)(=O)=O)c2c[nH]cn2)c1C (stereo not shown) [compound 93]
31 | 50 to 250 nM | Cc1cccc(C(c2c[nH]cn2)N2CCc3ccc(NS(C)(=O)=O)cc32)c1C (stereo not shown) [compound 106]
32 | 50 to 250 nM | Cc1cccc(C(c2cccc(NC(=O)CN3CCNCC3)c2)c2c[nH]cn2)c1C (stereo not shown) [compound 107]
33 | 50 to 250 nM | Cc1cccc(C(c2cccc(NC(=O)CN(C)C)c2)c2c[nH]cn2)c1C (stereo not shown) [compound 110]
34 | 50 to 250 nM | Cc1c(F)cccc1C(c1cccc(NC(=O)CC2CCOCC2)c1)c1c[nH]cn1 (stereo not shown) [compound 113]
35 | > 1000 nM | Cc1cccc(C(c2cccc(CN3CCCCC3)c2)c2c[nH]cn2)c1C (stereo not shown) [compound 114]
36 | 250 to 1000 nM | Cc1c(CO)cccc1C(c1cccc(NS(C)(=O)=O)c1)c1c[nH]cn1 (stereo not shown) [compound 115]
37 | 10 to 50 nM | Cc1cccc(C(c2cccc(COCCNS(C)(=O)=O)c2)c2c[nH]cn2)c1C (stereo not shown) [compound 116]
38 | 10 to 50 nM | Cc1cccc(C(c2cccc(CCN3CCC(O)CC3)c2)c2c[nH]cn2)c1C (stereo not shown) [compound 125]
39 | 10 to 50 nM | CNS(=O)(=O)Nc1cccc(C(c2c[nH]cn2)c2cccc(C)c2C)c1 (stereo not shown) [compound 127]
40 | 50 to 250 nM | CNC(=O)Nc1cccc(C(c2c[nH]cn2)c2cccc(C)c2C)c1 (stereo not shown) [compound 128]
41 | 50 to 250 nM | C=CC(=O)Nc1cccc(C(c2c[nH]cn2)c2cccc(C)c2C)c1 (stereo not shown) [compound 129]
42 | 10 to 50 nM | Cc1csc(CCS(=O)(=O)Nc2cccc(C(c3c[nH]cn3)c3cccc(C)c3C)c2)n1 (stereo not shown) [compound 131]
43 | 50 to 250 nM | COc1ccccc1C(c1cccc(NC(=O)CC2CCOCC2)c1)c1c[nH]cn1 (stereo not shown) [compound 132]
44 | 50 to 250 nM | COc1ccccc1C(c1cccc(NS(C)(=O)=O)c1)c1c[nH]cn1 (stereo not shown) [compound 135]
45 | 50 to 250 nM | CCc1ccccc1C(c1cccc(NS(C)(=O)=O)c1)c1c[nH]cn1 (stereo not shown) [compound 140]
46 | < 10 nM | Cc1cccc(C(Cc2cccc(NS(=O)(=O)CC3CCOCC3)c2)c2c[nH]cn2)c1C (stereo not shown) [compound 142]

Row | Ki | SMILES
47 | 50 to 250 nM | Cc1cccc(C(c2cccc(NC(=O)CC[N+](C)(C)C)c2)c2c[nH]cn2)c1C (stereo not shown) [compound 144]
48 | 50 to 250 nM | CONC(=O)c1cc(C(c2c[nH]cn2)c2cccc(C)c2C)cs1 (stereo not shown) [compound 182]
49 | 250 to 1000 nM | Cc1cccc(C(CCc2ccccc2NS(C)(=O)=O)c2c[nH]cn2)c1C (stereo not shown) [compound 183]
50 | > 1000 nM | Cc1cccc(C(CC23CC4CC(C2)CC(C(N)=O)(C4)C3)c2c[nH]cn2)c1C (stereo not shown) [compound 188]
51 | 10 to 50 nM | Cc1cccc(C(c2cccc(NS(=O)(=O)CCc3cncnc3)c2)c2c[nH]cn2)c1C (stereo not shown) [compound 189]
52 | 50 to 250 nM | Cc1cccc(C(CCCCNS(C)(=O)=O)c2c[nH]cn2)c1C (stereo not shown) [compound 191]
53 | > 1000 nM | Cc1cccc(C(Cc2ccc(P(=O)(O)O)cc2)c2c[nH]cn2)c1C (stereo not shown) [compound 199]
54 | 50 to 250 nM | Cc1cccc(C(Cc2ccc(C(N)=O)nc2)c2c[nH]cn2)c1C (stereo not shown) [compound 238]
55 | 250 to 1000 nM | Cc1cccc(C(CCCCCC(N)=O)c2c[nH]cn2)c1C (stereo not shown) [compound 240]
56 | 50 to 250 nM | Cc1cccc(C(CCCCNS(=O)(=O)C2CCOCC2)c2c[nH]cn2)c1C (stereo not shown) [compound 250]
57 | 250 to 1000 nM | Cc1csc(C)c1C(c1cccc(NS(C)(=O)=O)c1)c1c[nH]cn1 (stereo not shown) [compound 402]
58 | 250 to 1000 nM | CS(=O)(=O)Nc1cccc(CC(C2=NCCN2)c2c(Cl)cccc2Cl)c1 (stereo not shown) [compound 501]
59 | 50 to 250 nM | NC(=O)c1cccc(CC(Oc2c(Cl)cccc2Cl)C2=NCCN2)c1 (stereo not shown) [compound 502]
60 | 50 to 250 nM | Cc1cccc(C(NC2=NCCS2)c2cccc(NS(C)(=O)=O)c2)c1C (stereo not shown) [compound 504]
61 | 10 to 50 nM | Cc1cccc(C(NC2=NCCS2)c2cccc(NC(=O)CC3CCOCC3)c2)c1C (stereo not shown) [compound 507]
62 | 250 to 1000 nM | CONC(=O)c1cccc(C(NC2=NCCS2)c2ccccc2OC)c1 (stereo not shown) [compound 508]
63 | 50 to 250 nM | Cc1cccc(C(Cc2cccc(NS(C)(=O)=O)c2)C2=NCCN2)c1C (stereo not shown) [compound 510]
64 | < 10 nM | CONC(=O)c1cccc(CC(NC2=NCCS2)c2cccc(C)c2C)c1 (stereo not shown) [compound 511]
65 | < 10 nM | CONC(=O)c1cccc(CC(NC2=NCCS2)c2cccc(Cl)c2Cl)c1 (stereo not shown) [compound 512]
66 | < 10 nM | CONC(=O)c1cc(CC(NC2=NCCS2)c2ccccc2OC)ccn1 (stereo not shown) [compound 513]
67 | 50 to 250 nM | COc1ccccc1C(NC1=NCCS1)c1cccc(NC(=O)CC2CCOCC2)c1 (stereo not shown) [compound 514]

Row | SMILES | Ki
68 | Cc1cccc(C(c2cccc(C#N)c2)c2c[nH]cn2)c1C (stereo not shown) [compound 68] | 50 to 250 nM

Same assay, conditions: α2A affinity (Ki, nM)

Row | SMILES | Ki
69 | Cc1cccc(C(c2cnc[nH]2)C2CCc3ccc(O)cc32)c1C (single isomer, unassigned) [100-A] | < 10 nM
70 | Cc1cccc(C(c2cnc[nH]2)C2CCc3ccc(O)cc32)c1C (single isomer, unassigned) [100-B] | 50 to 250 nM
71 | Cc1cccc(C(COCCNS(C)(=O)=O)c2c[nH]cn2)c1C (stereo not shown) [compound 66] | 250 to 1000 nM
72 | Cc1cccc(C(CCCNS(C)(=O)=O)c2c[nH]cn2)c1C (stereo not shown) [compound 184] | 250 to 1000 nM
73 | Cc1cccc(C(CCCCCNS(C)(=O)=O)c2c[nH]cn2)c1C (stereo not shown) [compound 249] | 50 to 250 nM
